Consider four compounds from patent US10039779B2, “Combination formulation of two antiviral compounds” (priority 2013, dated 2018).

A short description of series [1]: pH-solubility profile and solubility in simulated intestinal media. The following applies: aqueous, neutral form (pH>5), room temperature. The series is classed as physicochemical. As to the method: Excess solid ledipasvir was added to a range of pH-adjusted aqueous solutions (titrated with HCl or NaOH) and stirred for 48 hours at room temperature. The suspensions were then filtered through regenerated cellulose syringe filters. The pH value of the supernatant was measured, and the supernatant was diluted as appropriate with 50:50 H2O+0.1% TFA:ACN and assayed for ledipasvir content by the HPLC-UV method.
Solubility of ledipasvir amorphous free base was assessed in three types of simulated intestinal fluids at pH 6.5 or pH 5.0; and simulated intestinal bile salt and lecithin mixture (SIBLM), pH 6.4. Excess solid ledipasvir was added to the respective SIFs and stirred for 48 hours at room temperature. The resulting suspensions were then filtered through regenerated cellulose syringe filters. The supernatant was diluted as appropriate with 50:50 H2O+0.1% TFA:ACN and assayed for ledipasvir content by the HPLC-UV method.

The nature of series [2]: Aqueous solubility with 0.1% w/w surfactants and polymers; dissolution behavior of forms. The following applies: aqueous buffered solutions. The series is classed as physicochemical. As to the method:
Excess solid was added to aqueous buffered solutions; samples were withdrawn at predetermined intervals (2, 5, 8, 10, 15, 20, 30, 45, 60 minutes, and 24 hours), filtered through regenerated cellulose filters, and diluted for concentration measurement by the HPLC-UV method.

Series [3] can be described thus: Pharmacokinetics of sofosbuvir and ledipasvir alone or in combination. The series is classed as in vivo. The following applies: for AUC(0-inf) / AUC(0-t) / Cmax: po, plasma analyte, n = 17, mean (% CV).
The next series relates to HCV. Nature of the series: Dose selection: antiviral response and Emax PK/PD modeling. Type of series: in vivo, Hepatitis C virus. How it is done:
The sofosbuvir dose selected for the tablet formulation is 400 mg once daily. Support for the 400 mg sofosbuvir dose can be derived from Emax PK/PD modeling with early virological and human exposure data which also supports the selection of a 400 mg sofosbuvir dose over others tested.
The mean sofosbuvir major metabolite AUCtau for the 400 mg sofosbuvir dose is associated with approximately 77% of the maximal HCV RNA change from baseline achievable as determined by this model, a value which is on the cusp of the plateau of the exposure-response sigmoidal curve. […] Therefore, given that sofosbuvir exposure with 200 mg tablets appears dose-proportional with single doses up to 1200 mg, doses below 400 mg are expected to yield considerable reductions in the magnitude of HCV RNA change from baseline.
The sofosbuvir dose of 400 mg once daily was associated with higher SVR rates in genotype 1 HCV infected patients as compared to the 200 mg once daily dose when given in conjunction with additional HCV therapeutics for 24 weeks. Safety and tolerability appeared similar across both dose levels. In addition, when sofosbuvir 400 mg once daily plus other HCV therapeutics were given to genotype 2 or 3 HCV infected patients, 100% SVR24 was observed.
The maximum median HCV RNA log 10 reduction was 3 or greater for all cohorts dosed with ≥3 mg of ledipasvir. […] Therefore, 30 mg and 90 mg of ledipasvir were selected as the dose for the formulations described herein.
Therefore, the 90 mg dose of ledipasvir may confer a greater antiviral coverage that prevents viral breakthrough.

The nature of series [4]: PK of sofosbuvir alone or with Compound E (and ledipasvir). The series is classed as in vivo. The following applies: for AUC(0-inf) / AUC(0-t) / Cmax: human, in vivo, n = 18, mean (% CV). As to the method: Subjects (n=18) received single doses of sofosbuvir (400 mg) alone or in combination with Compound E (500 mg QD) under fed conditions.
Series [5] can be described thus: Compatibility/stability of sofosbuvir and ledipasvir:copovidone solid dispersion blend. Type of series: physicochemical. The following applies: for Strength / Total Impurity Content: blend pellets, open glass vials. As to the method:
The compatibility of sofosbuvir anhydrous crystalline drug substance was evaluated with the ledipasvir:copovidone solid dispersion. A blend of the sofosbuvir and ledipasvir:copovidone (1:1) solid dispersion was prepared at a ratio representative of the final 400 mg sofosbuvir/90 mg ledipasvir tablets. […]

Another series is described as follows: clinical. Particulars: in vivo; for AUC(0-inf) / AUC(0-t) / Cmax: po, plasma analyte, Sofosbuvir/Ledipasvir Tablet, n = 29, mean (% CV); for AUC(0-inf): AUCinf; for AUC(0-t): AUClast.
Series [6] is described as follows: PK of Sofosbuvir/Ledipasvir tablets fasted or with meals.
[7] abbreviates: listed as Ledipasvir crystalline free base Form III.
Where [8] appears, read: Sofosbuvir + Ledipasvir vs single agent alone.
Setting [9] is: in vivo, Sofosbuvir + Ledipasvir.
Where [10] appears, read: SOF + Compound E + ledipasvir vs SOF alone.
[11] abbreviates: po, 400 mg, SOF + Compound E (500 mg QD), fed.
The mark [12] stands for this setting: po, 400 mg, SOF alone (400 mg single dose, fed).

`COC(=O)N[C@H](C(=O)N1CC2(CC2)C[C@H]1c1ncc(-c2ccc3c(c2)C(F)(F)c2cc(-c4ccc5nc([C@@H]6[C@H]7CC[C@H](C7)N6C(=O)[C@@H](NC(=O)OC)C(C)C)[nH]c5c4)ccc2-3)[nH]1)C(C)C` [Ledipasvir Form III]: the “intrinsic solubility (S0)” value in series [1] (setting [7]) is below 0.1 µg/mL. For the same compound, the “dissolution behavior relative to other ledipasvir forms” value in series [2] (setting [7]) is reported as “dissolves more slowly than the amorphous free base, but faster than ledipasvir-03”.
On to `COC(=O)N[C@H](C(=O)N1CC2(CC2)C[C@H]1c1ncc(-c2ccc3c(c2)C(F)(F)c2cc(-c4ccc5nc([C@@H]6[C@H]7CC[C@H](C7)N6C(=O)[C@@H](NC(=O)OC)C(C)C)[nH]c5c4)ccc2-3)[nH]1)C(C)C` [Ledipasvir-02], for which the “dissolution behavior relative to other ledipasvir forms” value in series [2] is on record as “improved relative to all free base forms”.
In the case of `COC(=O)N[C@H](C(=O)N1CC2(CC2)C[C@H]1c1ncc(-c2ccc3c(c2)C(F)(F)c2cc(-c4ccc5nc([C@@H]6[C@H]7CC[C@H](C7)N6C(=O)[C@@H](NC(=O)OC)C(C)C)[nH]c5c4)ccc2-3)[nH]1)C(C)C` [Ledipasvir-03], the “intrinsic solubility (S0)” value in series [1] was below 0.1 µg/mL. Further, the “dissolution behavior relative to other ledipasvir forms” value in series [2] is “slowest dissolution of all forms tested”.
In general, AUC(0-inf) refers to total exposure, with the tail of the curve extrapolated. As a reminder, the AUC(0-t) is exposure summed from dosing to a finite time, without extrapolation to infinity. Broadly, the Cmax is the maximum level reached in the sampled fluid or tissue. What is called Tmax is the time from dosing to the highest level. Turning to `CC(C)OC(=O)[C@H](C)N[P@](=O)(OC[C@H]1O[C@@H](n2ccc(=O)[nH]c2=O)[C@](C)(F)[C@@H]1O)Oc1ccccc1` [Sofosbuvir, (S)-isopropyl 2-(((S)-(((2R,3R,4R,5R)-5-(2,4-dioxo-3,4-dihydropyrimidin-1(2H)-yl)-4-fluoro-3-hydroxy-4-methyltetrahydrofuran-2-yl)methoxy)(phenoxy)phosphoryl)amino)propanoate], the “AUC with ledipasvir as share of total drug related material (DRM) AUC” value in series [3] (DRM = sum of AUCs of analytes corrected for molecular weight) is on record as around 5.7%. Also, the “% GMR (90% CI) of AUCinf” value in series [3] (setting [8]) is 229 (191, 276) %. Moreover, in series [3] (setting [8]), the “% GMR (90% CI) of AUClast” value is on record as 230 (191, 277) %. In addition, the “% GMR (90% CI) of Cmax” value in series [3] (setting [8]) is given as 221 (176, 278) %. Also, the “increase of plasma exposure by ledipasvir” value in series [3] (in vivo) was around 2.3 fold. Further, the AUC(0-inf) stood at 1750 ng·h/mL in series [3] (setting [9]); 794 ng·h/mL in series [3] (in vivo, Sofosbuvir alone); 2560 ng·h/mL in series [4] (SOF + Compound E + ledipasvir); 1150 ng·h/mL in series [4] (setting [11]); 921 ng·h/mL in series [4] (setting [12]); 1520 ng·h/mL in the series “clinical” (Fasted). For the same compound, the AUC(0-inf) in “clinical” (High-Calorie/High-Fat Meal) turned out to be 2570 ng·h/mL; in the series “clinical” (Moderate-Fat Meal), 2860 ng·h/mL. Also, the AUC(0-t) in series [3] (setting [9]) came to 1740 ng·h/mL; in series [3] (in vivo, Sofosbuvir alone) it was 788 ng·h/mL; in series [4] (SOF + Compound E + ledipasvir), 2550 ng·h/mL; in series [4] (setting [11]), 1140 ng·h/mL; in series [4] (setting [12]) it was 908 ng·h/mL; in the series “clinical” (Fasted), 1520 ng·h/mL. Further, the results for the AUC(0-t) in “clinical” (High-Calorie/High-Fat Meal) and in the series “clinical” (Moderate-Fat Meal) were 2550 ng·h/mL and 2850 ng·h/mL, respectively. The Cmax in series [3] (setting [9]) amounted to 1870 ng/mL; in series [3] (in vivo, Sofosbuvir alone), 929 ng/mL; in series [4] (SOF + Compound E + ledipasvir) it was 1260 ng/mL; in series [4] (setting [11]), 587 ng/mL; in series [4] (setting [12]), 515 ng/mL; in “clinical” (Fasted) it was 1240 ng/mL. Also, the values for the Cmax in “clinical” (High-Calorie/High-Fat Meal) and in “clinical” (Moderate-Fat Meal) were 1350 ng/mL and 1520 ng/mL, respectively. For the same compound, in the series on HCV (400 mg dose, mean major metabolite AUCtau), the “share of the maximal HCV RNA change from baseline achievable (Emax PK/PD model)” value is on record as “approximately 77%”. For the same compound, the SVR24 with HCV (400 mg once daily plus other HCV therapeutics, genotype 2 or 3 HCV infected patients) amounted to 100%. For the same compound, the “% GMR of AUCinf” value in series [4] (setting [10]) is given as 297%; in series [4] (SOF + Compound E vs SOF alone), 135%. Besides, the figures for the “% GMR of AUClast” value in series [4] (setting [10]) and in series [4] (SOF + Compound E vs SOF alone) were 301% and 135%, respectively. The “% GMR of Cmax” value in series [4] (setting [10]) is 283%; in series [4] (SOF + Compound E vs SOF alone), 130%. In series [5] (40° C./75% RH and 60° C./ambient humidity, two and four weeks), the “degradation in blend with the other active” value is “no degradation was observed”. The Strength came out at 102.9% in series [5] (45° C./75% RH, 0 weeks); 101.6% in series [5] (45° C./75% RH, 2 weeks); 100.5% in series [5] (45° C./75% RH, 4 weeks); 102.9% in series [5] (60° C., 0 weeks); 102.4% in series [5] (60° C., 1 week); 103.2% in series [5] (60° C., 2 weeks). Also, the Strength in series [5] (60° C., 4 weeks) worked out at 102.8%. Also, the “Total Impurity Content” value in series [5] (45° C./75% RH, 0 weeks) was found to be 0.4%; in series [5] (45° C./75% RH, 2 weeks), 0.3%; in series [5] (45° C./75% RH, 4 weeks), 0.2%; in series [5] (60° C., 0 weeks), 0.4%; in series [5] (60° C., 1 week) it was 0.3%; in series [5] (60° C., 2 weeks), 0.3%. Moreover, in series [5] (60° C., 4 weeks), the “Total Impurity Content” value is listed as 0.2%. In the series “clinical”, the time to peak (Tmax) turned out to be 1 h. For the same compound, the “% GMR (90% CI) [Moderate-Fat/Fasted] of AUCinf” value in series [6] (Sofosbuvir/Ledipasvir Tablet) was 195 (176, 216) %. Moreover, the “% GMR (90% CI) [Moderate-Fat/Fasted] of AUClast” value in series [6] (Sofosbuvir/Ledipasvir Tablet) is 195 (176, 216) %. The “% GMR (90% CI) [Moderate-Fat/Fasted] of Cmax” value in series [6] (Sofosbuvir/Ledipasvir Tablet) is on record as 126 (109, 147) %. For the same compound, in series [6] (Sofosbuvir/Ledipasvir Tablet), the “GMR (90% CI) [High-Fat/Fasted] of AUCinf” value was 179 (162, 198) %. For the same compound, the “GMR (90% CI) [High-Fat/Fasted] of AUClast” value in series [6] (Sofosbuvir/Ledipasvir Tablet) is listed as 178 (161, 198) %. In series [6] (Sofosbuvir/Ledipasvir Tablet), the “GMR (90% CI) [High-Fat/Fasted] of Cmax” value is 115 (99.0, 134) %. Further, the “median Tmax” value in series [6] (sofosbuvir/ledipasvir composition, with food) is 2.00 h.
